Read-outs that look alike come from different tables or passages of the source.
What was measured:
Test in all cases: Glasshouse assay for herbicidal activity (pre- and post-emergence), percentage phytotoxicity
Assay type in all cases: in vivo
[1] = test system: Echinochloa crus-galli (ECHCG); conditions: Echinochloa crus-galli
How it was run: (§1)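 Pot-grown plants treated one day after sowing (pre-emergence) or at about 12 days (post-emergence); glasshouse at 24/18° C (warm) or 20/16° C (cool species) day/night, 16 h light, 65% humidity. Visual % phytotoxicity (0 = none, 100 = total damage) scored at 15 DAA post or 20 DAA pre.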

[2] = test system: Alopecurus myosuroides (ALOMY); conditions: Alopecurus myosuroides
How it was run: as §1

Lolium perenne (LOLPE) = conditions: Lolium perenne
How it was run: as §1

Avena fatua (AVEFA) = conditions: Avena fatua
How it was run: as §1

[3] = post-emergence, 360 h, 250 g/ha, post-emergence, 15 DAA, visual assessment (100%=total damage, 0%=no damage), read-out: Post-emergence herbicidal activity (percentage phytotoxicity) ECHCG POST
[4] = pre-emergence, 480 h, 250 g/ha, pre-emergence, 20 DAA, visual assessment (100%=total damage, 0%=no damage), read-out: Pre-emergence herbicidal activity (percentage phytotoxicity) ECHCG PRE
[5] = post-emergence, 360 h, 250 g/ha, post-emergence, 15 DAA, visual assessment (100%=total damage, 0%=no damage), read-out: Post-emergence herbicidal activity (percentage phytotoxicity) ALOMY POST
[6] = pre-emergence, 480 h, 250 g/ha, pre-emergence, 20 DAA, visual assessment (100%=total damage, 0%=no damage), read-out: Pre-emergence herbicidal activity (percentage phytotoxicity) ALOMY PRE
[7] = post-emergence, 360 h, 250 g/ha, post-emergence, 15 DAA, visual assessment (100%=total damage, 0%=no damage), read-out: Post-emergence herbicidal activity (percentage phytotoxicity) LOLPE POST
[8] = pre-emergence, 480 h, 250 g/ha, pre-emergence, 20 DAA, visual assessment (100%=total damage, 0%=no damage), read-out: Pre-emergence herbicidal activity (percentage phytotoxicity) LOLPE PRE
[9] = post-emergence, 360 h, 250 g/ha, post-emergence, 15 DAA, visual assessment (100%=total damage, 0%=no damage), read-out: Post-emergence herbicidal activity (percentage phytotoxicity) AVEFA POST
[10] = pre-emergence, 480 h, 250 g/ha, pre-emergence, 20 DAA, visual assessment (100%=total damage, 0%=no damage), read-out: Pre-emergence herbicidal activity (percentage phytotoxicity) AVEFA PRE

## CCc1cc(OCC(F)(F)F)cc(C)c1C1C(=O)CC(CC(N)=O)C1=O (stereo not shown) [Compound B167]
[1]; post-emergence, 360 h, POST-emergence, rate 250 g/ha, visual score 15 DAA (100%=total damage, 0%=no damage), read-out: Post-emergence herbicidal activity (percentage phytotoxicity) ECHCG POST
  pest or weed control at 250 g/ha: 100%
[1]; pre-emergence, 480 h, PRE-emergence, rate 250 g/ha, visual score 20 DAA (100%=total damage, 0%=no damage), read-out: Pre-emergence herbicidal activity (percentage phytotoxicity) ECHCG PRE
  pest or weed control at 250 g/ha: 100%
[2]; post-emergence, 360 h, POST-emergence, rate 250 g/ha, visual score 15 DAA (100%=total damage, 0%=no damage), read-out: Post-emergence herbicidal activity (percentage phytotoxicity) ALOMY POST
  pest or weed control at 250 g/ha: 100%
[2]; pre-emergence, 480 h, PRE-emergence, rate 250 g/ha, visual score 20 DAA (100%=total damage, 0%=no damage), read-out: Pre-emergence herbicidal activity (percentage phytotoxicity) ALOMY PRE
  pest or weed control at 250 g/ha: 100%
Lolium perenne (LOLPE); post-emergence, 360 h, POST-emergence, rate 250 g/ha, visual score 15 DAA (100%=total damage, 0%=no damage), read-out: Post-emergence herbicidal activity (percentage phytotoxicity) LOLPE POST
  pest or weed control at 250 g/ha: 90%
Lolium perenne (LOLPE); pre-emergence, 480 h, PRE-emergence, rate 250 g/ha, visual score 20 DAA (100%=total damage, 0%=no damage), read-out: Pre-emergence herbicidal activity (percentage phytotoxicity) LOLPE PRE
  pest or weed control at 250 g/ha: 100%
Avena fatua (AVEFA); post-emergence, 360 h, POST-emergence, rate 250 g/ha, visual score 15 DAA (100%=total damage, 0%=no damage), read-out: Post-emergence herbicidal activity (percentage phytotoxicity) AVEFA POST
  pest or weed control at 250 g/ha: 100%
Avena fatua (AVEFA); pre-emergence, 480 h, PRE-emergence, rate 250 g/ha, visual score 20 DAA (100%=total damage, 0%=no damage), read-out: Pre-emergence herbicidal activity (percentage phytotoxicity) AVEFA PRE
  pest or weed control at 250 g/ha: 90%

## Cc1cc(-c2ccc(C#N)cn2)cc(C)c1C1C(=O)CC(CC(=O)NC(C)(C)C)C1=O (stereo not shown) [Compound B75]
[1]; [3]
  pest or weed control at 250 g/ha: 100%
[1]; [4]
  pest or weed control at 250 g/ha: 100%
[2]; [5]
  pest or weed control at 250 g/ha: 100%
[2]; [6]
  pest or weed control at 250 g/ha: 100%
Lolium perenne (LOLPE); [7]
  pest or weed control at 250 g/ha: 100%
Lolium perenne (LOLPE); [8]
  pest or weed control at 250 g/ha: 90%
Avena fatua (AVEFA); [9]
  pest or weed control at 250 g/ha: 100%
Avena fatua (AVEFA); [10]
  pest or weed control at 250 g/ha: 90%

## Cc1cc(-c2ncc(Cl)cc2Cl)cc(C)c1C1C(=O)CC(CC(=O)NC(C)(C)C)C1=O (stereo not shown) [Compound A168]
[1]; post-emergence, 360 h, post-emergence, 250 g/ha, 15 DAA, visual score (100%=total damage; 0%=no damage), read-out: ECHCG POST herbicidal activity (percentage phytotoxicity)
  pest or weed control at 250 g/ha: 100%
[1]; pre-emergence, 480 h, pre-emergence, 250 g/ha, 20 DAA, visual score (100%=total damage; 0%=no damage), read-out: ECHCG PRE herbicidal activity (percentage phytotoxicity)
  pest or weed control at 250 g/ha: 80%
[2]; post-emergence, 360 h, post-emergence, 250 g/ha, 15 DAA, visual score (100%=total damage; 0%=no damage), read-out: ALOMY POST herbicidal activity (percentage phytotoxicity)
  pest or weed control at 250 g/ha: 90%
[2]; pre-emergence, 480 h, pre-emergence, 250 g/ha, 20 DAA, visual score (100%=total damage; 0%=no damage), read-out: ALOMY PRE herbicidal activity (percentage phytotoxicity)
  pest or weed control at 250 g/ha: 80%
Lolium perenne (LOLPE); post-emergence, 360 h, post-emergence, 250 g/ha, 15 DAA, visual score (100%=total damage; 0%=no damage), read-out: LOLPE POST herbicidal activity (percentage phytotoxicity)
  pest or weed control at 250 g/ha: 100%
Lolium perenne (LOLPE); pre-emergence, 480 h, pre-emergence, 250 g/ha, 20 DAA, visual score (100%=total damage; 0%=no damage), read-out: LOLPE PRE herbicidal activity (percentage phytotoxicity)
  pest or weed control at 250 g/ha: 80%
Avena fatua (AVEFA); post-emergence, 360 h, post-emergence, 250 g/ha, 15 DAA, visual score (100%=total damage; 0%=no damage), read-out: AVEFA POST herbicidal activity (percentage phytotoxicity)
  pest or weed control at 250 g/ha: 90%
Avena fatua (AVEFA); pre-emergence, 480 h, pre-emergence, 250 g/ha, 20 DAA, visual score (100%=total damage; 0%=no damage), read-out: AVEFA PRE herbicidal activity (percentage phytotoxicity)
  pest or weed control at 250 g/ha: 20%

## CCCCNC(=O)CC1CC(=O)C(c2c(C)cc(-c3ncc(F)cn3)cc2C)C1=O (stereo not shown) [Compound B111]
[1]; [3]
  pest or weed control at 250 g/ha: 100%
[1]; [4]
  pest or weed control at 250 g/ha: 100%
[2]; [5]
  pest or weed control at 250 g/ha: 100%
[2]; [6]
  pest or weed control at 250 g/ha: 70%
Lolium perenne (LOLPE); [7]
  pest or weed control at 250 g/ha: 100%
Lolium perenne (LOLPE); [8]
  pest or weed control at 250 g/ha: 100%
Avena fatua (AVEFA); [9]
  pest or weed control at 250 g/ha: 100%
Avena fatua (AVEFA); [10]
  pest or weed control at 250 g/ha: 90%

## Cc1cc(-c2ccc(Cl)cc2)cc(C)c1C1C(=O)CC(CC(=O)NC(C)C)C1=O (stereo not shown) [Compound A35]
[1]; post-emergence, 360 h, Rate 250 g/ha, post-emergence, assessed visually 15 DAA, 100%=total damage, 0%=no damage, read-out: Post-emergence herbicidal activity (percentage phytotoxicity) ECHCG POST
  pest or weed control at 250 g/ha: 100%
[1]; pre-emergence, 480 h, Rate 250 g/ha, pre-emergence, assessed visually 20 DAA, 100%=total damage, 0%=no damage, read-out: Pre-emergence herbicidal activity (percentage phytotoxicity) ECHCG PRE
  pest or weed control at 250 g/ha: 100%
[2]; post-emergence, 360 h, Rate 250 g/ha, post-emergence, assessed visually 15 DAA, 100%=total damage, 0%=no damage, read-out: Post-emergence herbicidal activity (percentage phytotoxicity) ALOMY POST
  pest or weed control at 250 g/ha: 90%
[2]; pre-emergence, 480 h, Rate 250 g/ha, pre-emergence, assessed visually 20 DAA, 100%=total damage, 0%=no damage, read-out: Pre-emergence herbicidal activity (percentage phytotoxicity) ALOMY PRE
  pest or weed control at 250 g/ha: 90%
Lolium perenne (LOLPE); post-emergence, 360 h, Rate 250 g/ha, post-emergence, assessed visually 15 DAA, 100%=total damage, 0%=no damage, read-out: Post-emergence herbicidal activity (percentage phytotoxicity) LOLPE POST
  pest or weed control at 250 g/ha: 100%
Lolium perenne (LOLPE); pre-emergence, 480 h, Rate 250 g/ha, pre-emergence, assessed visually 20 DAA, 100%=total damage, 0%=no damage, read-out: Pre-emergence herbicidal activity (percentage phytotoxicity) LOLPE PRE
  pest or weed control at 250 g/ha: 100%
Avena fatua (AVEFA); post-emergence, 360 h, Rate 250 g/ha, post-emergence, assessed visually 15 DAA, 100%=total damage, 0%=no damage, read-out: Post-emergence herbicidal activity (percentage phytotoxicity) AVEFA POST
  pest or weed control at 250 g/ha: 100%
Avena fatua (AVEFA); pre-emergence, 480 h, Rate 250 g/ha, pre-emergence, assessed visually 20 DAA, 100%=total damage, 0%=no damage, read-out: Pre-emergence herbicidal activity (percentage phytotoxicity) AVEFA PRE
  pest or weed control at 250 g/ha: 100%

— patent US10206394B2, “Herbicidal compounds” (Syngenta Participations AG, priority 2014, dated 2019)
